Entries after “also recorded” stand apart in the source; their conditions may differ.
How the values were obtained:
[1] = tested on: epithelial cells; assay: EMT-associated gene/protein expression in epithelial cells exposed to WNT16B conditioned medium; type: cell-based, human; conditions: epithelial cells in WNT16B fibroblast CM
[2] = tested on: prostate cancer cells; assay: Proliferation of prostate cancer cells in fibroblast conditioned medium; type: cell-based, human; conditions: cell numbers 72 hours after treatment
Method: The cultures were incubated for 3 days after which cells were detached with trypsin and the total cell number was determined by direct counting with hemacytometer. The PSC27/BPH1-GFP proportion was determined on a FACScan using GFP fluorescence as a marker for BPH1-GFP cells. […] The supernatant was harvested, filtered, concentrated and either stored frozen at −80° C. or applied immediately. BPH1-GFP, PC3 and other cell lines were seeded in conditioned medium or fresh DMEM+0.5% FBS, and grown for specific time periods and the total number of cells was determined by direct counting. All assays were performed at least three times and reported as mean values. Assays of cell proliferation were performed with the CellTiter96® AQueous One Solution Cell Proliferation Assay (MTS) with signals captured using a 96-well plate reader or by direct counting using a hemacytometer. […] Migrating or invading cells in the bottom chambers were stained and plate absorbance was recorded at 485/520 nm emission. Each assay was performed in triplicate and measured at 24 hour time points over 3 days and presented as the average absorbance of migrating cells and invading cells, with human HeLA cervical cancer cell line (ATCC) used as a reference positive control. […]

[3] = tested on: PC3 cells; assay: Caspase 3/7 apoptosis assay of PC3 cells exposed to MIT; type: cell-based, human; conditions: 24 hour of MIT exposure (IC50)
Text: For apoptosis assays, 0.2×10^6 PC3 cells were dispensed into 6-well culture plates and co-cultured with media conditioned from PSC27 sublines. […] For the morphological analysis, bright field pictures were taken for PC3 cells with inverted phase-contrast microscopy.

[4] = tested on: prostate cancer cells; assay: Trans-well invasion of prostate cancer cells in fibroblast conditioned medium; type: cell-based, human; conditions: 24 h of treatment
Method: All assays were performed at least three times and reported as mean values. Assays of cell proliferation were performed with the CellTiter96® AQueous One Solution Cell Proliferation Assay (MTS) with signals captured using a 96-well plate reader or by direct counting using a hemacytometer. For trans-well migration and invasion assays, serum-starved cells in serum-free medium were added to the top chambers of Cultrex 24-well Cell Migration Assay plates (8 μm size) coated with or without basement membrane extract (BM) prepared as 0.5× of stock solution. CM from fibroblasts or regular epithelial media containing 10% fetal calf serum (FCS) were added to the bottom chambers. Migrating or invading cells in the bottom chambers were stained and plate absorbance was recorded at 485/520 nm emission. Each assay was performed in triplicate and measured at 24 hour time points over 3 days and presented as the average absorbance of migrating cells and invading cells, with human HeLA cervical cancer cell line (ATCC) used as a reference positive control. […] Luciferase assays were performed using a Dual-Luciferase Reporter Assay kit, and fold induction for each cell line was calculated as normalized relative light units of TOPFLASH divided by those of FOPFLASH. […]

[5] = tested on: prostate cancer cells; assay: Chemoresistance (viability) assay with MIT in fibroblast conditioned medium; type: cell-based, human
Method: Chemoresistance assays were performed using epithelial cells cultured with either DMEM and low serum (0.5% FCS) (abbreviated as “DMEM”), or conditioned medium (CM) generated from PSC27, […] or OVF28901 cells expressing vector controls, WNT16B, or siRNAs. […] Cell viability was then assayed, and the percentage of viable cells was calculated by comparing each experiment to vehicle-treated cells. Each assay was repeated a minimum of 3 times with results reported as mean±s.e.m. For chemoresistance assays, various neoplastic epithelial cells were cultured with either DMEM of low serum (0.5% FBS) only (abbreviated as “DMEM”), or CM generated from PSC27, HBF1023 or OVF28901 in various states (e.g., WNT16B overexpression, WNT16B knockdown, irradiated). […] Cell viability was assayed by MTS or direct counting with trypan blue, and the percentage of viable cells was calculated by normalizing absorbance of each experiment to untreated cells. To assess the influence of WNT16B across a range of MIT concentrations, a series of drug concentrations were applied bracketing the IC50 dose, with percent survival plotted against MIT dose at a 3-day time point. […] Luciferase assays were performed using a Dual-Luciferase Reporter Assay kit, and fold induction for each cell line was calculated as normalized relative light units of TOPFLASH divided by those of FOPFLASH. […]

[6] = tested on: WNT16B promoter; assay: WNT16B promoter luciferase reporter assay; type: cell-based, human; conditions: compared to untreated cells
Text: The immediate 5′ upstream sequences containing putative NF-κB binding elements of the WNT16B gene were amplified from genomic DNA extracted from PSC27 cells by a DNeasy Blood and Tissue kit (QIAGEN). PCR products were cloned into pCR2.1-TOPO vector (Invitrogen) and each insert was sequenced for confirmation. PCR fragments were then double-digested and subcloned into a reporter luciferase vector pGL4.22 vector. Constructs containing one or multiple mutant NF-κB binding sites were generated from the reporter vector series by site-directed mutagenesis. The NAT11-Luc2CP-IRES-nEGFP control construct that contains large copy numbers of NF-κB binding sequences and an optimized IL-2 minimal promoter as part of NFκB-activated transgene (NAT) system was kindly provided by Dr. Hatakeyama (Hokkaido University). All constructs were confirmed by DNA sequencing in both directions. Reporter vectors were co-transfected with pRL-TK vector for transfection efficiency controls and internal normalization for gene expression measurements. Cells were either treated with 20 ng/ml TNF-α for 90 min, exposed to 10 Gy γ-irradiation or 1 μM Mitoxantrone for 1 day. […] Luciferase activity was measured using the Luciferase Assay System and normalized luciferase activities were calculated as light units normalized to renilla luciferase activity present in each specimen.

[7] = tested on: PC3 cells; assay: In vivo chemoresistance study: subrenal capsule xenografts treated with three cycles of MIT; design: species or system mouse
Method: All animal studies were performed in accordance with protocols approved by the Institutional Animal Care and Use Committee (IACUC) of Fred Hutchinson Cancer Research Center, and were carried out in accordance with the NIH Guide for laboratory animals. Mouse care/welfare and veterinary oversight were provided by the center animal care. ICR SCID mice (Taconic, Inc.) at an age of approximately 6 weeks (25 g body weight) were used. Rat tail collagen (high concentration, type I) was prepared before the ice-cold collagen solution was neutralized and adjusted to the proper osmolarity by adding a mixture of NaOH and ×10 PBS. To prepare tissue recombinants, fibroblasts (PSC27 strain) and epithelial cells (PC3, BPH1 or MDA-MB-231) were mixed at a ratio of 1:1, with each recombinant comprised of 250,000 cells of each line. After polymerization, the cell/collagen mixture was overlaid with growth medium and incubated at 37° C. for 1 hour before implantation.
Xenografting was performed under isoflurane anesthesia. A pocket beneath the back skin was formed using surgical scissors, with an oblique incision (<1 cm) made on the capsule surface parallel and adjacent to the long axis of each kidney. Cells were injected under the capsule with a blunt 25-gauge needle and a glass Hamilton syringe via a transrenal injection, forming a starting tumor with a volume of 1 to 2 mm^3. The kidney was returned to the retroperitoneal space and the skin was closed with surgical staples. The growth of xenografts was assessed at weekly intervals using ultrasound instruments. Animals were sacrificed at 2-8 weeks post transplantation, based on the tumor burden and pathological progression of tested animals. Upon dissection, tumor volume (V) was measured and calculated according to the tumor length (1) and width (w) by the following formula: V=(π/6)×((l+w)/2)^3 (Anand et al., Nat. Genet 31:301-305, 2002). Tumors were snap-frozen or processed conventionally for formalin fixation. Resulting sections were used for hematoxylin/eosin staining, and immunostaining for selected gene expression markers.
For chemoresistance studies, ICR SCID mice received subrenal capsule xenografts by implantation according to the procedure described above. After surgery, mice were given standard laboratory diets and water ad libitum for 2 weeks, to allow tumor uptake and growth initiation. Starting from the 3rd week (when tumor sizes reached from about 4 to about 8 mm in diameter), mice received Mitoxantrone at a dose of 0.2 mg/kg by i.p. injection, or vehicle control, on day 1 of week 3, week 5, and week 7 (Alderton et al., Cancer Res. 52:194-201, 1992). Between 8 and 12 mice were randomly assigned to each study arm. A total regimen of 3 2-week cycles was administered. After the final treatment cycle the mice were sacrificed, kidneys were removed for tumor measurement and histological analysis. The cumulative Mitoxantrone dose received per mouse was 0.6 mg/kg. Each experimental arm comprised 5-8 mice per treatment cohort.

[8] = tested on: PC3 cells; assay: Acute in vivo response to MIT: cleaved caspase 3 IHC in xenografts; design: species or system mouse; conditions: 24 hours after MIT
Method: For assessments of the acute effects of chemotherapy, mice harboring xenografts of PC3 cells combined with PSC27 fibroblasts were treated with Mitoxantrone 0.2 mg/kg by i.p. injection, or vehicle control. Xenografts were collected 24 hour after treatment and tissues were processed for IHC. Apoptosis was assessed by staining with anti-caspase 3 antibody (cleaved, BioCare Medical). On adjacent sections, immunostaining with anti-γH2AX (Upstate) was performed to quantitate cells with DNA-damage.

[9] = tested on: primary prostate fibroblasts (PSC27 cells)
Method: After treatment, the cells were rinsed 3 times with PBS and left to recover for 3 days in PSC medium.
Cells growing on coverslips were rinsed, subjected to fixation in 4% paraformaldehyde and permeabilization with 0.1% Triton-X100 prior to immunostaining Primary mouse monoclonal anti-phospho-Histone H2A.X (Ser139) (clone JBW301) and secondary antibody Alexa Fluor® 488 (or 594)-conjugated F(ab′)2 goat anti-mouse IgG were sequentially applied. Nuclei were counterstained with 2 μg/ml of 4′,6-diamidino-2-phenylindole (DAPI) and coverslips were mounted onto glass slides. Upon visual examination of the DNA damage extent with immunofluorescence microscopy, DDR foci were recorded with a 4-category counting strategy, namely 4 classes: 0 foci, 1 to 3 foci, 4 to 10 foci, and >10 foci. Data from each cell line/treatment were averaged from a pool of 3 independent fields counting 100 nuclei per pool.

[10] = tested on: Wnt16b; assay: Systemic effect of MIT on Wnt16b expression in mouse organs (Western immunoblot); type: in vivo; conditions: mice, three MIT treatments over eight weeks
Method: To determine the systemic effects of MIT treatment on Wnt16b expression, parallel experiments involved administering MIT or vehicle as per the treatment schema above, to cohorts of mice (n=6) without xenografts. At the completion of the 8-week treatment regimen, mice were euthanized and various tissues were rapidly resected and snap frozen or fixed in formalin. Following protein isolations, Western immunoblot analysis was performed for Wnt16b expression, as described above.

[11] = tested on: PC#/PSC27 cells; assay: Subcutaneous grafts of PC#/PSC27 cells treated with systemic RAPA and MIT; type: in vivo; conditions: RAPA used with MIT

## Oc1nc(-c2ccc(C(F)(F)F)cc2)nc2c1CSCC2 [XAV939]
[1]
  WNT16B-induced EMT-associated gene expression: blocked
[2]
  proliferative effect of the PSC27-RAD DDSP (full DDSP CM): markedly attenuated; also recorded: attenuates
  proliferative response induced by WNT16B (PSC27^WNT16B CM): completely suppressed; also recorded: suppresses
[3]
  attenuation of MIT apoptotic response by PSC27^WNT16B-conditioned medium: blocked
[4]
  invasive effect of the PSC27-RAD DDSP (full DDSP): markedly attenuated; also recorded: attenuates
  invasive response induced by WNT16B: completely suppressed; also recorded: suppresses
[5]
  effects of PSC27-RAD-conditioned medium on promoting tumor cell survival: attenuated

## TNF-α
[6]
  WNT16B reporter activity: induced

## O=C1c2c(O)ccc(O)c2C(=O)c2c(NCCNCCO)ccc(NCCNCCO)c21 [MIT, mitoxantrone]
[7]; BPH-1 or PC3 plus PSC27^WNT16B or PSC27^C fibroblasts, three cycles of MIT
  tumor volumes, MIT vs no MIT: significantly reduced
[7]; PC3 + PSC27^C+shRNA^C grafts
  tumor volume after MIT: 20 mm^3
[7]; PC3+PSC27-RAD grafts (300 mm^3 without MIT)
  tumor volume after MIT: 55 mm^3
[7]; PC3+PSC27^C grafts
  tumor volume after MIT: 13 mm^3
[7]; PC3+PSC27^WNT16B grafts
  tumor volume after MIT: 78 mm^3
[7]; tumor cells with unirradiated PSC27 fibroblasts (PSC27^C)
  tumor size, MIT-treated vs untreated mice: substantially smaller
[8]; PC3+PSC27^C grafts
  apoptotic cells (cleaved caspase 3 IHC): 34%
[8]; PC3+PSC27^WNT16B tumors
  apoptotic cells (cleaved caspase 3 IHC): 14%
[9]
  number of γ-H2AX foci: substantially increased
[10]
  expression of WNT16B protein in prostates, breasts and ovaries: induced

## CO[C@H]1C[C@@H]2CC[C@@H](C)[C@@](O)(O2)C(=O)C(=O)N2CCCC[C@H]2C(=O)O[C@H]([C@H](C)C[C@@H]2CC[C@@H](O)[C@H](OC)C2)CC(=O)[C@H](C)/C=C(\C)[C@@H](O)[C@@H](OC)C(=O)[C@H](C)C[C@H](C)/C=C/C=C/C=C/1C [RAPA, Rapamycin]
[11]
  reduction in tumor volumes: approximately 60%

## bleomycin
[9]
  number of γ-H2AX foci: substantially increased

## OO [hydrogen peroxide]
[9]
  number of γ-H2AX foci: substantially increased

— patent publication US9759725B2, “Treatment-induced damage to the tumor micro-environment promotes cancer therapy resistance through extracellular proteins” (Fred Hutchinson Cancer Research Center, priority 2012, dated 2017)
